{
  "source": "patent US12558428B2",
  "about": "“Heterobifunctional compounds and their use in treating disease” (Halda Therapeutics OpCo, Inc., priority 2024, dated 2026)",
  "data": [
    {"system": "T-Rex 293 cells having increased expression of estrogen receptor alpha protein", "assay": "Cellular growth inhibition assay, T-Rex 293 cells, (+) doxycycline", "assay_type": "cell-based", "conditions": "T-REx-293, 72 h, Table 7-A; T-Rex 293 cells with doxycycline (increased ERα expression); 72 hours; CellTiter-Glo; read-out: (+) Dox GI50", "summary_of_the_method": "(§1)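 Cells of an inducible ERα-expressing T-Rex 293 clone are seeded in charcoal-dextran FBS medium with or without 3 ng/mL doxycycline, then treated after 24 h with compound dilutions (0.5% DMSO) for 72 h. Growth inhibition is measured by CellTiter-Glo luminescence and expressed as GI50.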", "units": {"GI50": "µM"}, "values": [
      {"smiles": "Cc1sc2c(c1C)C(c1ccc(N3CC(CN4CCC(C(=O)N5CC(c6ccc([C@@H]7c8ccc(O)cc8CC[C@@H]7c7ccccc7)cc6)C5)CC4)C3)cc1)=N[C@@H](C)c1nnc(C)n1-2", "note": "[III-173]", "GI50": "< 0.05"},
      {"smiles": "CC1=C(C)C2C(c3ccc(N4CCC(C(=O)N5CC(c6ccc([C@@H]7c8ccc(O)cc8CC[C@@H]7c7ccccc7)cc6)C5)CC4)cc3)N[C@@H](Cc3ncco3)c3nnc(C)n3C2S1", "note": "(stereo partly drawn) [III-174]", "GI50": "< 0.05"},
      {"smiles": "Cc1sc2c(c1C)C(c1ccc(C3CN(C(=O)C4CCN(CC5CN(c6ccc([C@@H]7c8ccc(O)cc8CC[C@@H]7c7ccccc7)cc6)C5)CC4)C3)cc1)=N[C@@H](Cc1ncco1)c1nnc(C)n1-2", "note": "[III-175]", "GI50": "< 0.05"},
      {"smiles": "Cc1sc2c(c1C)C(c1ccc(N3CC(CN4CCC(C(=O)N5CC(c6ccc([C@@H]7c8ccc(O)cc8CC[C@@H]7c7ccccc7)cc6)C5)CC4)C3)cc1)=N[C@@H](Cc1ncco1)c1nnc(C)n1-2", "note": "[III-176]", "GI50": "< 0.05"},
      {"smiles": "Cc1sc2c(c1C)C(c1ccc(N3CC(CN4CCC(O)(CN5CC(c6ccc([C@@H]7c8ccc(O)cc8CC[C@@H]7c7ccccc7)cc6)C5)CC4)C3)cc1)=N[C@@H](C)c1nnc(C)n1-2", "note": "[III-177]", "GI50": "< 0.05"},
      {"smiles": "Cc1sc2c(c1C)C(c1ccc(N3CC(CC4(O)CCN(c5ccc([C@@H]6c7ccc(O)cc7CC[C@@H]6c6ccccc6)cc5)CC4)C3)cc1)=N[C@@H](Cc1ncco1)c1nnc(C)n1-2", "note": "[III-178]", "GI50": "< 0.05"},
      {"smiles": "Cc1sc2c(c1C)C(c1ccc(N3CC(CN4CCN(C(=O)C5CN(c6ccc([C@@H]7c8ccc(O)cc8CC[C@@H]7c7ccccc7)cc6)C5)CC4)C3)cc1)=N[C@@H](Cc1ncco1)c1nnc(C)n1-2", "note": "[III-179]", "GI50": "< 0.05"},
      {"smiles": "Cc1sc2c(c1C)C(c1ccc(N3CC(CN4CCC(O)(CN5CC(c6ccc([C@@H]7c8ccc(O)cc8CC[C@@H]7c7ccccc7)cc6)C5)CC4)C3)cc1)=N[C@@H](Cc1ncco1)c1nnc(C)n1-2", "note": "[III-180]", "GI50": "< 0.05"}
    ]},
    {"system": "T-Rex 293 cells lacking increased expression of estrogen receptor alpha protein", "assay": "Cellular growth inhibition assay, T-Rex 293 cells, (−) doxycycline", "assay_type": "cell-based", "conditions": "T-REx-293, 72 h, Table 7-A; T-Rex 293 cells without doxycycline (lacking increased ERα expression); 72 hours; CellTiter-Glo; read-out: (−) Dox GI50", "summary_of_the_method": "as §1", "units": {"GI50": "µM"}, "values": [
      {"smiles": "Cc1sc2c(c1C)C(c1ccc(N3CC(CN4CCC(C(=O)N5CC(c6ccc([C@@H]7c8ccc(O)cc8CC[C@@H]7c7ccccc7)cc6)C5)CC4)C3)cc1)=N[C@@H](C)c1nnc(C)n1-2", "note": "[III-173]", "GI50": "0.05 to 0.5"},
      {"smiles": "CC1=C(C)C2C(c3ccc(N4CCC(C(=O)N5CC(c6ccc([C@@H]7c8ccc(O)cc8CC[C@@H]7c7ccccc7)cc6)C5)CC4)cc3)N[C@@H](Cc3ncco3)c3nnc(C)n3C2S1", "note": "(stereo partly drawn) [III-174]", "GI50": "0.05 to 0.5"},
      {"smiles": "Cc1sc2c(c1C)C(c1ccc(C3CN(C(=O)C4CCN(CC5CN(c6ccc([C@@H]7c8ccc(O)cc8CC[C@@H]7c7ccccc7)cc6)C5)CC4)C3)cc1)=N[C@@H](Cc1ncco1)c1nnc(C)n1-2", "note": "[III-175]", "GI50": "0.05 to 0.5"},
      {"smiles": "Cc1sc2c(c1C)C(c1ccc(N3CC(CN4CCC(C(=O)N5CC(c6ccc([C@@H]7c8ccc(O)cc8CC[C@@H]7c7ccccc7)cc6)C5)CC4)C3)cc1)=N[C@@H](Cc1ncco1)c1nnc(C)n1-2", "note": "[III-176]", "GI50": "0.05 to 0.5"},
      {"smiles": "Cc1sc2c(c1C)C(c1ccc(N3CC(CN4CCC(O)(CN5CC(c6ccc([C@@H]7c8ccc(O)cc8CC[C@@H]7c7ccccc7)cc6)C5)CC4)C3)cc1)=N[C@@H](C)c1nnc(C)n1-2", "note": "[III-177]", "GI50": "0.05 to 0.5"},
      {"smiles": "Cc1sc2c(c1C)C(c1ccc(N3CC(CC4(O)CCN(c5ccc([C@@H]6c7ccc(O)cc7CC[C@@H]6c6ccccc6)cc5)CC4)C3)cc1)=N[C@@H](Cc1ncco1)c1nnc(C)n1-2", "note": "[III-178]", "GI50": "0.05 to 0.5"},
      {"smiles": "Cc1sc2c(c1C)C(c1ccc(N3CC(CN4CCN(C(=O)C5CN(c6ccc([C@@H]7c8ccc(O)cc8CC[C@@H]7c7ccccc7)cc6)C5)CC4)C3)cc1)=N[C@@H](Cc1ncco1)c1nnc(C)n1-2", "note": "[III-179]", "GI50": "< 0.05"},
      {"smiles": "Cc1sc2c(c1C)C(c1ccc(N3CC(CN4CCC(O)(CN5CC(c6ccc([C@@H]7c8ccc(O)cc8CC[C@@H]7c7ccccc7)cc6)C5)CC4)C3)cc1)=N[C@@H](Cc1ncco1)c1nnc(C)n1-2", "note": "[III-180]", "GI50": "0.05 to 0.5"}
    ]},
    {"system": "MCF7 cells (ATCC #HTB-22)", "assay": "Cellular growth inhibition assay, MCF7 cells purchased from ATCC", "assay_type": "cell-based", "conditions": "Homo sapiens, MCF7, 144 h, Table 8-A; MCF7 cells purchased from ATCC; six days; CellTiter-Glo; read-out: GI50", "summary_of_the_method": "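GI50 values come from a four-parameter fit of CellTiter-Glo 2.0 luminescence after six days of compound exposure at 37° C. Seeding density depended on the source: 225 cells/well for ECACC MCF7, 1,500 for ATCC. Medium was RPMI 1640 with 10% FBS and 0.2 U/ml insulin.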", "units": {"GI50": "µM"}, "values": [
      {"smiles": "Cc1sc2c(c1C)C(c1ccc(N3CC(CN4CCC(C(=O)N5CC(c6ccc([C@@H]7c8ccc(O)cc8CC[C@@H]7c7ccccc7)cc6)C5)CC4)C3)cc1)=N[C@@H](C)c1nnc(C)n1-2", "note": "[III-173]", "GI50": "< 0.05"},
      {"smiles": "CC1=C(C)C2C(c3ccc(N4CCC(C(=O)N5CC(c6ccc([C@@H]7c8ccc(O)cc8CC[C@@H]7c7ccccc7)cc6)C5)CC4)cc3)N[C@@H](Cc3ncco3)c3nnc(C)n3C2S1", "note": "(stereo partly drawn) [III-174]", "GI50": "< 0.05"},
      {"smiles": "Cc1sc2c(c1C)C(c1ccc(C3CN(C(=O)C4CCN(CC5CN(c6ccc([C@@H]7c8ccc(O)cc8CC[C@@H]7c7ccccc7)cc6)C5)CC4)C3)cc1)=N[C@@H](Cc1ncco1)c1nnc(C)n1-2", "note": "[III-175]", "GI50": "< 0.05"},
      {"smiles": "Cc1sc2c(c1C)C(c1ccc(N3CC(CN4CCC(C(=O)N5CC(c6ccc([C@@H]7c8ccc(O)cc8CC[C@@H]7c7ccccc7)cc6)C5)CC4)C3)cc1)=N[C@@H](Cc1ncco1)c1nnc(C)n1-2", "note": "[III-176]", "GI50": "< 0.05"},
      {"smiles": "Cc1sc2c(c1C)C(c1ccc(N3CC(CN4CCC(O)(CN5CC(c6ccc([C@@H]7c8ccc(O)cc8CC[C@@H]7c7ccccc7)cc6)C5)CC4)C3)cc1)=N[C@@H](C)c1nnc(C)n1-2", "note": "[III-177]", "GI50": "0.05 to 0.5"},
      {"smiles": "Cc1sc2c(c1C)C(c1ccc(N3CC(CC4(O)CCN(c5ccc([C@@H]6c7ccc(O)cc7CC[C@@H]6c6ccccc6)cc5)CC4)C3)cc1)=N[C@@H](Cc1ncco1)c1nnc(C)n1-2", "note": "[III-178]", "GI50": "< 0.05"},
      {"smiles": "Cc1sc2c(c1C)C(c1ccc(N3CC(CN4CCN(C(=O)C5CN(c6ccc([C@@H]7c8ccc(O)cc8CC[C@@H]7c7ccccc7)cc6)C5)CC4)C3)cc1)=N[C@@H](Cc1ncco1)c1nnc(C)n1-2", "note": "[III-179]", "GI50": "< 0.05"},
      {"smiles": "Cc1sc2c(c1C)C(c1ccc(N3CC(CN4CCC(O)(CN5CC(c6ccc([C@@H]7c8ccc(O)cc8CC[C@@H]7c7ccccc7)cc6)C5)CC4)C3)cc1)=N[C@@H](Cc1ncco1)c1nnc(C)n1-2", "note": "[III-180]", "GI50": "< 0.05"}
    ]}
  ]
}
